Test results: US7361279B2, “Removing metals from solution using metal binding compounds and sorbents therefor” (priority 2002, dated 2008)
Values joined by “and” are separate entries in the source; they are usually repeats but may differ in a detail not shown here. Equal entries are not always repeated.

Columns and labels:
[1] = Desorption of MeBT from GAC surfaces; type: physicochemical; conditions: 30 day period, metal- and benzotriazole-free solutions, pH 2-5, varying ionic strength
Procedure: After sorption, GAC was removed, washed with water, and then transferred to a clean electrolyte solution at different pH (pH 2-4) to investigate the stability of the metal: 5-MeBT complexes once immobilized on activated carbon. After 24 hours of equilibration and at time intervals 0, 7, and 30 days, 5 mls of each sample was centrifuged and analyzed for both metal and 5-MeBT content using both ICP/EAS and HPLC.
The potential for the desorption of MeBT from GAC surfaces was monitored over a 30 day period.

[2] = cited from earlier work
[3] = Differential pulse polarography, stability constants (DeFord-Hume, Lingane), Cu(II); type: binding
From the text: (§1) Such an approach was applied to estimate the strength of metal-benzotriazole interactions in acidic solutions. The current that flows during a single life time of a dropping mercury electrode (DME) is held at a given potential in a polarograph and is described by the Ilkovic Equation: Id=708nDo^1/2C0*m^2/3t^1/6 (2)
(§2) In their classic report, Deford and Hume (1951) defined a series of functions, where the change in reduction potential of a target ion, measured with a polarograph, can be directely related to its complexation stability by the progressive addition of a known ligand.
(§3) Stability constants are obtained as follows where F0(x)=ΣβnCL^n=β0β1CL+β2CL^2+ . . . +βnCL^n (7)
(§4) In order to obtain β1, . . . , βn, a widely-accepted graphical extrapolation method derived by Leden (1941) was applied. Sequential plots of equation (7) (Fn(X) vs. C) yielded a family of curves, through which coordination chemistry between metals and benzotriazoles was determined.
(§5) The maximum coordination number was also independently determined using the Lingane method reported by Crow (1969) with a plot of ΔE1/2 Vs. Log Cx relationship, using the Lingane equation: […]
(§6) βmxj (the overall stability constant), and j (maximum number of ligands coordinated with a metal through a reversible series of complexing interactions), were determined for Cu(II), Pb(II) and Zn(II) interactions with benzotriazoles. The present application reports the development and use of polarographic methods for quantification of benzotriazole complexes to study their potential for immobilizing metals on activated carbon surfaces.
(§7) Polarographic and voltammetric measurements were performed with a CV-50W Voltametric analyzer fitted with a controlled growth mercury electrode; this multimode electrode was used in a static mercury drop electrode (SMDE) mode. The mercury electrode was multiplexed using BAS commercial software (Bioanalytical Systems, Inc., Lafayette, Ind., USA) a platinum auxiliary electrode and an Ag/AgCl (3 M KCl) reference electrode. All potentials were normalized to the Ag/AgCl electrode. A system scan rate of 5 mV s^−1 was used with a drop time of 1 sec. For DPP, the pulse amplitude was 100 mV with a sample width of 17 msec. A repeatable drop size was produced using a borosilicate capillary tube. The solenoid activation setting was 100 ms for all runs.
(§8) For the stability constant calculations, a 15 ml supporting electrolyte solution was pipetted into the voltammetric cell and the metal salt addition was adjusted to yield a final concentration of approximately 10^−5 M. The ligand (5-methybenzotriazole) was then added in increasing concentration from 0 to 1×10^−2 M. Polarograms were constructed, and the shift in the half wave potential was recorded after each ligand addition. All DPP measurements were made in triplicate.

[4] = Differential pulse polarography, stability constants (DeFord-Hume, Lingane), Pb(II); type: binding
From the text: as §1, §2, §3, §4, §5, §6, §7, §8

[5] = Removal of benzotriazoles from solution by granular activated carbon; type: physicochemical; conditions: for soluble 5-MeBT content after exposure to GAC (HPLC): after 24 hours
Procedure: (§9) A spectra-Physics high performance liquid chromatograph (HPLC) fitted with a UV detector (λ=254 nm) was used. 5-MeBT analysis was performed isocratically using two Zorbax Rx-C8 4.6×250 mm columns in series (MacMod Analytical, Inc., Chadds Ford, Pa., USA). The eluent consisted of a phosphate buffer mixed in a 70:30 ratio with HPLC grade acetylnitrile at a flow rate of 1.5 ml/minute with a sample injection volume of 200 μl. All samples were centrifuged at 10,000×g for 5 minutes prior to analysis.
Using simple time-series analysis of soluble methylbenzotriazole, the minimum time required for complete sorption was determined. Each experiment reached equilibrium before 48 hours, using a criteria of no more than 4% change in aqueous concentration during the observation period. Mass balances were used to determine the equilibrium portioning of MeBT in the microcosms system. Aqueous concentration data was used to calculate the amount of MeBT associated with GAC by differences. The equilibrium partioning data were then inverted and log-transformed, and tested against widely-accepted sorption models for “best-fit”.
as §9, with “chromatography” for “chromatograph”, “(HPLC)” for “(HPLC) fitted”, “UV-Vis Detector” for “a UV detector”, “Methylbenzotriazole” for “5-MeBT”
(§10) Microcosms used for benzotriazole-metal immobilization experiments on GAC. Microcosms consisted of 250 ml Erlenmeyer flasks containing 75 mls of test solution with and without activated carbon. 75 milliliter aliquots of MeBT solution containing known GAC masses were placed in 250 ml Erlenmeyer flask. The samples were allowed to equilibrate on a shaker table at 15° C. for no more than 24 hours. Following equilibration, the samples were centrifuged and the supernatant was analyzed for both metal and 5-MeBT content. Metal-ligand molar ratios of 1:0, 1:2, 1:10, and 1:30 were employed. Identical experiments were conducted for each metal in the absence of GAC for the same metal: ligand ratios to determine any possible metal removal effects associated with precipitation. The resulting aqueous metal concentrations were measured by DPP and confirmed by inductive coupled plasma/atomic emission spectroscopy (ARL 3410 ICP/AES) in an EPA certified laboratory in the Geology department at University of Colorado. 5-MeBT was measured by both DPP and HPLC methods.

[6] = Batch microcosm immobilization of copper on Calgon MRX-P GAC
Procedure: (§11) Experiments were executed to bracket a range of MeBT and carbon concentrations near the sorptive capacity of calgon MRX, as judged by Freundlich isotherm modeling (c.a. 49 mg/g). Lead, copper, and zinc were chosen as models to study the complexation behavior and sorptive interactions when MeBT is bound to different transition metals. Different ratios of ligand (MeBT) and metal were chosen based on the coordination stichiometry of MeBT with each metal. The ionic strength was held constant at 0.0 1M, and H2SO4 and HNO3 were used as background electrolytes. Lead, copper and zinc concentrations of 10 mg/L and carbon concentrations of 5 g/L were employed for batch microcosm assays.
as §10

[7] = Batch microcosm immobilization of zinc on Calgon MRX-P GAC; conditions: pH 3, ligand to metal ratio 30:1, carbon 5 g/L
Procedure: as §11
as §10, with “The samples were allowed to equilibrate on a shaker table at 15° C. for no more than 24 hours.” left out, “Metal-ligand molar ratios of 1:0, 1:2, 1:10, and 1:30 were employed. Identical experiments were conducted for each metal in the absence of GAC for the same metal: ligand ratios to determine any possible metal removal effects associated with precipitation.” left out

[8] = Batch microcosm immobilization of lead on Calgon MRX-P GAC
Procedure: as §11, §10

[9] = Differential pulse polarography, Zn(II) complexation; type: binding; conditions: DPP, increasing MeBT
From the text: as §1, §2, §6
Polarographic and voltammetric measurements were performed with a CV-50W Voltametric analyzer fitted with a controlled growth mercury electrode; this multimode electrode was used in a static mercury drop electrode (SMDE) mode. […]

[10] = Cu(II) 5 × 10^−5 M, 5-MeBT 0-3 × 10^−3 M
[11] = [Cu(II)]=5×10^−5M, pH=2.5, T=25° C.
[12] = Pb(II) 3 × 10^−5 M, 5-MeBT 0-7 × 10^−3 M
[13] = [Pb(II)]=3×10^−5M, pH=3, T=25° C.

Cc1ccc2[nH]nnc2c1 [5-MeBT, 5-methylbenzotriazole]
desorption of 5-MeBT from saturated Calgon MRX-P [1]: did not liberate measurable amounts | first pKa (dissociation) [2]: ~2 and 2 | second pKa (dissociation) [2]: ~9 | pKa ([2]; weak organic acid): approximately 8.8 | β (copper complexing agent) [3]: ~10^15 | DeFord-Hume method Log β1 [3, 10]: 12.8 | DeFord-Hume method Log β2 [3, 10]: 15.8 | Lingane method Log βn [3, 10]: 15.8 | Maximum coordination number (ligand: metal ratio) [3, 10]: 2 | β1 (first complex stability) from intercept of F1(X) [3, 11]: ~6×10^12 | β2 (overall stability constant) from slope of F1(X) [3, 11]: ~7×10^15 | β2 from intercept of F2(X) vs. [5-MeBT] [3, 11]: 7×10^15 | DeFord-Hume method Log β1 [4, 12]: 3.3 | Lingane method Log βn [4, 12]: 3.8 | Maximum coordination number (ligand: metal ratio) [4, 12]: 1 | β1 from intercept of F1(X) vs. [MeBT] [4, 13]: ~1.8×10^3 | β1 from slope of Fo(X) vs. [MeBT] [4, 13]: ~2.2×10^3 | time to sorption equilibrium ([5]; 1% GAC w/vol, 10-2000 mg/L MeBT, no more than 4% change criterion): < 48 h | affinity for granular activated carbon compared with benzene ([5]; Calgon MRX 10×30 mesh, pH 2 to 5): approximately the same as that observed for benzene | soluble 5-MeBT content after exposure to GAC (HPLC) ([5]; copper microcosms): less than 0.25 mg/L | soluble 5-MeBT content after exposure to GAC (HPLC) ([5]; lead microcosms): less than 0.25 mg/L | soluble 5-MeBT content after exposure to GAC (HPLC) ([5]; zinc microcosms): less than 0.25 mg/L | share of copper sequestered on GAC associated with an MeBT precipitate ([6]; pH 2): almost none | Cu(II) removal efficiency, maximum ([6]; pH 2, ligand to metal ratio 30:1, carbon 5 g/L): 13% | share of copper removal associated with an MeBT precipitate ([6]; pH 3): approximately 18% | Cu(II) removal ([6]; pH 3, MeBT to Cu(II) molar ratios of 2, 10 and 30): 32-35% | share of copper removal associated with an MeBT precipitate ([6]; pH 4): ~40% | Zn(II) removal efficiency, maximum [7]: 9% | share of lead sequestered on GAC associated with an MeBT precipitate [8]: approximately 25% | share of lead sequestered on GAC associated with soluble MeBT complex [8]: ~75% | Pb(II) removal in the absence of GAC (precipitation) ([8]; pH 2, MeBT to Pb(II) molar ratio 2): approximately 2.5% | Pb(II) removal in the absence of GAC (precipitation) ([8]; pH 2, MeBT to Pb(II) molar ratio 10): ~6% | Pb(II) removal in the absence of GAC (precipitation) ([8]; pH 2, MeBT to Pb(II) molar ratio 30): ~12% | precipitation-associated Pb(II) removal ([8]; pH 3, absence of GAC): about 20% | Pb(II) removal efficiency, maximum ([8]; pH 3, ligand to metal ratio approximately 30:1, carbon 5 g/L): 82% | potential shift on addition of MeBT to zinc-containing solutions [9]: no potential shifts | potential shift on addition of MeBT to zinc-containing solutions ([9]; listed as methybenzotriazole): no significant potential shifts
